Assay results published in patent US20250051407A1, “De novo designed sequence-specific DNA binding proteins” (University of Washington, priority 2023, published 2025).
“Also recorded” adds a separate entry of the source.

Columns and labels:
13 unique dsDNA targets = assay: All-by-all yeast surface display screen of DBP design hits; assay type: binding; settings: for Target sequence preference: 13 unique dsDNA targets; for Number of the 13 tested DNA target sequences preferentially bound: 1 μM dsDNA with avidity, including designed target sequence; for Binding specificity versus design models: all-by-all screen with Rosetta-predicted motifs
Method: And an all-by-all screen of DBP design hits to 13 unique dsDNA targets was performed (FIG. 4, table 2). […] To try to understand these observed binding preferences, each tested DNA sequence was threaded onto each design complex model at all possible base pair alignments, the alternative complex models were relaxed with Rosetta™, and the model with the most favorable Rosetta™ ΔΔG was selected.
Saccharomyces cerevisiae EBY100 strain cultures were grown in C-Trp-Ura medium supplemented with 2% (w/v) glucose. For induction of expression, yeast cells were centrifuged at 6,000 g for 1 min and resuspended in SGCAA medium supplemented with 0.2% (w/v) glucose at the cell density of 1×10^7 cells per ml and induced at 30° C. for 16-24 h. Cells were washed with PBSF (PBS with 1% (w/v) BSA) and labeled with biotinylated targets using two labeling methods: with-avidity and without-avidity labeling. For the with-avidity method, the cells were incubated with biotinylated target, together with anti-c-Myc fluorescein isothiocyanate (FITC, Miltenyi Biotech) and streptavidin-phycoerythrin (SAPE, ThermoFisher). The concentration of SAPE in the with-avidity method was used at one-quarter of the concentration of the biotinylated targets. For the without-avidity method, the cells were first incubated with biotinylated targets, washed and secondarily labeled with SAPE and FITC.
(§1) For yeast display characterization of individual designs, including competition assays, DNA sequences encoding the proteins of interest were purchased as Integrated DNA Technologies (IDT) E-Blocks™, transformed into yeast cells, and incubated in 96 well culture plates. Labeling with biotinylated dsDNA targets and SAPE/FITC was performed in a 96 well plate format. For yeast display competition assays, labeling was performed without avidity using 1 μM biotinylated dsDNA duplex oligos and an excess of 8 μM non-biotinylated competitor dsDNA duplex oligos. […] Flow cytometry analysis was performed with an Attune NxT™ flow cytometer with autosampler. Flow cytometry data analysis was performed using custom python code and the CytoFlow™ python package. For each individual sample, gating of the expression population was performed using the CytoFlow™ Gaussian Mixture Model and the ratio of SAPE channel intensity to FITC channel intensity (binding signal/expression signal) was calculated for all gated expression events of the sample.

dsDNA target = assay: Site saturation mutagenesis (SSM) library sorting, protein-side footprinting; assay type: binding; settings: for Tolerance of positions to substitution: interface, core and surface positions; for Substitutions improving binding: every residue substituted with each of the 20 amino acids
Method: As disclosed in the examples that follow, the contributions of each amino acid to binding for additional designs, high-resolution footprints of the binding surface as generated was assessed by sorting site saturation mutagenesis libraries (SSMs) in which every residue was substituted with each of the 20 amino acids one at a time for DBPs 1, 6, and 35. Permissible substitutions for many of the polypeptides of the disclosure are provided in columns 2 and 3 Tables 4-19.
Thus, in some embodiments, substitutions relative to the reference sequence are selected from residues listed in columns 2 or 3 of one of Tables 4-19. In other embodiments, substitutions relative to the reference sequence are selected from residues listed in column 2 of one of Tables 4-19. Column 2 lists the “best” substitutions, which retain or improve DNA target binding activity relative to the reference sequence. Column 3 lists “permissible” substitutions, which retain binding to the DNA target sequence.
To assess the contributions of each amino acid to binding for additional designs, high-resolution footprints of the binding surface as generated by sorting site saturation mutagenesis libraries (SSMs) in which every residue was substituted with each of the 20 amino acids one at a time for DBPs 1, 6, and 35. […] In a small number of cases, substitutions led to notable improvements in binding affinity.
Cell sorting of labeled yeast pools was performed using a Sony SH800S cell sorter. Libraries of designs were sorted using the with-avidity method for the first few rounds of screening to exclude weak binder candidates, followed by several without-avidity sorts with different concentrations of targets. For SSM libraries, two rounds of with-avidity sorts were applied and in the third round of screening the libraries were titrated with a series of decreasing concentrations of targets to enrich mutants with beneficial mutations.
The Pear program was used to assemble the fastq files from the deep sequencing runs. Translated, assembled reads were matched against the ordered design to determine the number of counts for each design in each pool. In each sequenced pool, binder enrichment was calculated by determining the percent of reads for each binder design in the pool and dividing this number by the same value in the naive expression sort pool. […] For SSM libraries, apparent SC50 was estimated using the fitting procedure described in Longxing et al. (15)

[1] = system: biotinylated target dsDNA with non-biotinylated competitor dsDNA; assay: Yeast display competition assay with base-substituted competitor dsDNA; assay type: binding; settings: for DNA binding site specificity: all possible base mutations at each position of the competitor oligo
From the text: We used a yeast display competition assay to characterize the DNA binding site specificity of a subset of the designs (FIG. 1A-E, left; FIG. 5). Addition of non-biotinylated competitor dsDNA to biotinylated target sequence reduced binding signal by flow cytometry (FIG. 1A-E, middle). […] For example, in DBP6 (FIG. 1A) R31 and R36 in the design model form bidentate hydrogen bonds with the guanines of base pair positions G12 and C9, respectively, while T32 forms a hydrogen bond with C10.
as §1

[2] = system: synTF-specific cis-regulatory elements (CRE) in HEK293T cells; assay: Transcriptional activation by synTFs in HEK293T cells (ENGRAM); assay type: cell-based; settings: DBP fused to GCN4 dimerization domain and VP64; HEK293T cells expressing PEmax; dependent on spacing between motifs
From the text: Next, we investigated whether the DBPs can be used as activators in mammalian cells. A set of synthetic transcription factors (synTFs) were created by fusing the GCN4 dimerization domain and the VP64 activation domain to the C-termini of DBPs 9, 35opt, 48, 57, and 60 which recognize 3 unique motifs. The dimerization domain allows the DBPs to recognize a palindromic target sequence consisting of two binding motifs, improving the binding affinity to the DNA sequence (FIG. 2C). We created synTF specific cis-regulatory elements (CRE) with 4 repeats spaced by 6 bp to drive the expression of downstream genes, and used the ENGRAM (43) recording technology to measure the activity of the synTFs in HEK293 cells. In ENGRAM, each CRE drives the expression of a uniquely barcoded pegRNA, which upon expression is recorded into the DNA TAPE at the HEK3 locus by prime-editor (PEmax); the activity of individual synTFs can be measured as the abundance of the barcode on the DNA TAPE (FIG. 2C). We first tested 3 different spacings-1 bp, 3 bp, and 5 bp-between the palindromic binding motifs to maximize the recorder activity. 3 synTF specific recorders and 1 TCF-LEF-recorder (negative control) were mixed with ratio 2:2:2:1 and co-transfected with synTFs into the HEK293T cells expressing PEmax. Cells were harvested and analyzed 2 days post-transfection. After analyzing the barcode abundance on the DNA TAPE, we observed 3-5 fold activation for DBP9/DBP35 and DBP57/DBP60 (FIG. 2D).
HEK293T cells expressing PEmax™ were cultured in DMEM High glucose (GIBCO), supplemented with 10% Fetal Bovine Serum (Rocky Mountain Biologicals) and 1% penicillin-streptomycin (GIBCO). Cells were grown with 5% CO2 at 37° C. 1×10^5 cells were seeded on a 48-well plate a day before transfection. Enhancer plasmid and binder plasmid were mixed with a ratio of 2:1. Enhancer variants and background control were mixed with a ratio of 2:2:2:1. A total of 300 ng of plasmid were transfected using Lipofectamine™ 3000 (ThermoFisher, L3000015), following the manufacturer's protocol. Cells were harvested 2 days post-transfection. Genomic DNA was extracted based on the protocol described earlier (43). Briefly, cells were lysed using freshly prepared lysis buffer (10 mM Tris-HCl, pH 7.5; 0.05% SDS; 25 µg/ml protease (ThermoFisher)) for each well. The genomic DNA mixture was incubated at 50° C. for 1 h, followed by an 80° C. enzyme inactivation step for 30 min. The DNA TAPE was amplified from the genomic DNA directly for next generation sequencing. Recorded information was extracted via custom analysis code. Each enhancer has a unique barcode representing its activity. Transcription activation was measured as the fold change in the barcode abundance relative to the negative control barcode. All measurements were performed in triplicates.

Molecule | Target sequence preference (13 unique dsDNA targets) | Tolerance of positions to substitution (dsDNA target) | DNA binding site specificity [1] | Number of the 13 tested DNA target sequences preferentially bound (13 unique dsDNA targets) | Binding specificity versus design models (13 unique dsDNA targets) | Substitutions improving binding (dsDNA target) | Fold activation of synTFs measured as normalized barcode abundance in the DNA TAPE [2] | Number of base positions of specificity [1]
DBP1: designed DNA-binding protein, SEQ ID NO: 1, DNA target A (TARELEVAALIAQGRSNREIAEELNISERTVERYVRRILRKLGLRNRAQIAAWVIRRS) | strong preference for 2 or 3 of the sequence targets | most positions at the interface and the core were largely conserved while positions at the surface were more tolerant of substitutions | specificities consistent with the designed sidechain-base interactions | – | – | – | – | –
DBP6: designed DNA-binding protein, SEQ ID NO: 4, DNA target B (DWAARAAAARRLRKERGLTQAELGELAGVSRTTVSRIELGRPDVSQASVDAVLAVL) | strong preference for only their designed target sequence | most positions at the interface and the core were largely conserved while positions at the surface were more tolerant of substitutions | specificity for a 6 nucleotide stretch (TGCACA) with peripheral dependence on T8 and A13; also recorded: specificities consistent with the designed sidechain-base interactions; also recorded: specificity for the GCxG motif | less than 3 | bound with specificity closely consistent with the design models | relatively few mutations at interface positions improved binding with the exceptions of L39, D43, and 548 | – | –
DBP35: designed DNA-binding protein, SEQ ID NO: 15, DNA target B (protein) GFGRAVKEKRKELGLTQKEFAEKAGLSRRTIIRIERGYIVPPKATKEKIAKALGTSVEELEQA | – | most positions at the interface and the core were largely conserved while positions at the surface were more tolerant of substitutions | specificities consistent with the designed sidechain-base interactions | less than 3 | bound with specificity closely consistent with the design models | substitutions of R33 and K18 improved binding | 3-5 fold | 3 base positions
